Source: ChEMBL document CHEMBL1201862, “PubChem BioAssay data set” (2004)
Calls of active or inactive are those of the source.

Columns and labels:
[1] = Trypanosoma cruzi growth suppression in host cells – NIH3T3 host cells, beta-gal luminescence, confirmation (AID 2044); assay type: functional, cell-based;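 note: intracellular parasites grown in NIH/3T3 mouse fibroblasts as host cells; luminescent beta-galactosidase reporter signal from transgenic T. cruzi replicating inside host cells; inhibitors lower the luminescence signal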
[2] = target: T1, Ubiquitin-conjugating enzyme E2 N (Homo sapiens, UniProt P61088); assay type: functional;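 note: Dose-response confirmation in a TR-FRET assay detecting UBC13-driven polyubiquitin chain formation, inhibition measured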
T1 sequence (P61088 whole entry): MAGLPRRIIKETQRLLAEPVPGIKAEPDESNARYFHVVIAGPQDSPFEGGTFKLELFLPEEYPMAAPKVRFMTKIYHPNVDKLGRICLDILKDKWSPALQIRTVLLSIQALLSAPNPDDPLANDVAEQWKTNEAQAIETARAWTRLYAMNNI

[3] = target: T2, CAAX prenyl protease 2 (Saccharomyces cerevisiae S288c, UniProt Q03530); assay type: biochemical
T2 sequence (Q03530 whole entry): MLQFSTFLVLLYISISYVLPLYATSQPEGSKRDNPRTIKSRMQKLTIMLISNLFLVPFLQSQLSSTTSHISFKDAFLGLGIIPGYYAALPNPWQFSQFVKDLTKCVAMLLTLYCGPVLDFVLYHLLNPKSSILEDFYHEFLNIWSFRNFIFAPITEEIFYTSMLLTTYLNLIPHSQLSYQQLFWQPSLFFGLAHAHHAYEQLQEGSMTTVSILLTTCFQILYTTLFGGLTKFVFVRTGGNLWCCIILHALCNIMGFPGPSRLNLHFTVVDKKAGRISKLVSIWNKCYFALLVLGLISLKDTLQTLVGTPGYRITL

[4] = target: Delta-type opioid receptor (Homo sapiens, UniProt P41143); assay: Counterscreen for agonists of heterodimerization of the mu 1 (OPRM1) and delta 1 (OPRD1) opioid receptors: Luminescence-based cell-based high throughput dose response assay to identify agonists of OPRD1 homodimerization. [Related pubchem assays (depositor defined):AID504326, AID504355, AID504692, AID504904, AID504905]; assay type: functional
Sequence of Delta-type opioid receptor (P41143 whole entry): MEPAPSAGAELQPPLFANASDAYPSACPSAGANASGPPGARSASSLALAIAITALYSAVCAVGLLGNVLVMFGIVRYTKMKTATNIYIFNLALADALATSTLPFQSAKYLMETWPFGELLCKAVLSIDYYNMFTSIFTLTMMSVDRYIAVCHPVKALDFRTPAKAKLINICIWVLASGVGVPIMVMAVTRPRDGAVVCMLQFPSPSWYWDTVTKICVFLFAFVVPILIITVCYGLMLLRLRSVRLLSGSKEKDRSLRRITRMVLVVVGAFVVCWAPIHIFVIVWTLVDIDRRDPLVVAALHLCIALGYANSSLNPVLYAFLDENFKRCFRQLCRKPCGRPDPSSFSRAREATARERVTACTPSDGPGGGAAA

[5] = tested on: INS1; assay: INS-1E survival protection against cytokine death – cell-based, luminescence, retest, dose response (AID 449756); assay type: functional; details: Rattus norvegicus;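 note: cell death triggered by IL-1 beta plus TNF-alpha plus IFN-gamma mixture; protective hits raise ATP signal compared with cytokine alone wells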
[6] = target: Serine/threonine-protein phosphatase PP1-alpha catalytic subunit (Homo sapiens, UniProt P62136); assay: inhibition of protein phosphatase 1 activity – biochemical, fluorescence, dose response (AID 2394)
Sequence of Serine/threonine-protein phosphatase PP1-alpha catalytic subunit (P62136 whole entry): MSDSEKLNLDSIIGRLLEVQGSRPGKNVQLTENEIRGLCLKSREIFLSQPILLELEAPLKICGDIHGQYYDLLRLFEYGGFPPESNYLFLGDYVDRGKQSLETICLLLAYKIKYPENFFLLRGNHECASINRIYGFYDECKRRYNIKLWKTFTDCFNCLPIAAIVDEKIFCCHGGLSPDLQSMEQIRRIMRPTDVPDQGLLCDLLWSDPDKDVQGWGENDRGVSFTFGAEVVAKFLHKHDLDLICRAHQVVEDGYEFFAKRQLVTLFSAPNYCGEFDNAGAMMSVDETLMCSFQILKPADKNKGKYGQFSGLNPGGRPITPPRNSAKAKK

[7] = target: T3, Bcl-2-related protein A1 (Mus musculus, UniProt Q07440); assay: displacement of Bid BH3 peptide from Bfl-1 – biochemical, fluorescence polarization, FITC-Bid, mouse, primary screen (AID 432)
T3 sequence (Q07440 whole entry): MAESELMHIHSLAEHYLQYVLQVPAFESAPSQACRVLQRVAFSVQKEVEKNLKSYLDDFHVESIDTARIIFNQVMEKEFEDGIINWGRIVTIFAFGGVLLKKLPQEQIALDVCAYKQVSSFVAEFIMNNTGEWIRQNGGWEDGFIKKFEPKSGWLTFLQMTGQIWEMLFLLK

[8] = target: Protein-tyrosine kinase 2-beta (Homo sapiens, UniProt Q14289);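 note: potency of inhibitors of PYK2 kinase phosphorylation of poly-GT substrate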
Sequence of Protein-tyrosine kinase 2-beta (Q14289 whole entry): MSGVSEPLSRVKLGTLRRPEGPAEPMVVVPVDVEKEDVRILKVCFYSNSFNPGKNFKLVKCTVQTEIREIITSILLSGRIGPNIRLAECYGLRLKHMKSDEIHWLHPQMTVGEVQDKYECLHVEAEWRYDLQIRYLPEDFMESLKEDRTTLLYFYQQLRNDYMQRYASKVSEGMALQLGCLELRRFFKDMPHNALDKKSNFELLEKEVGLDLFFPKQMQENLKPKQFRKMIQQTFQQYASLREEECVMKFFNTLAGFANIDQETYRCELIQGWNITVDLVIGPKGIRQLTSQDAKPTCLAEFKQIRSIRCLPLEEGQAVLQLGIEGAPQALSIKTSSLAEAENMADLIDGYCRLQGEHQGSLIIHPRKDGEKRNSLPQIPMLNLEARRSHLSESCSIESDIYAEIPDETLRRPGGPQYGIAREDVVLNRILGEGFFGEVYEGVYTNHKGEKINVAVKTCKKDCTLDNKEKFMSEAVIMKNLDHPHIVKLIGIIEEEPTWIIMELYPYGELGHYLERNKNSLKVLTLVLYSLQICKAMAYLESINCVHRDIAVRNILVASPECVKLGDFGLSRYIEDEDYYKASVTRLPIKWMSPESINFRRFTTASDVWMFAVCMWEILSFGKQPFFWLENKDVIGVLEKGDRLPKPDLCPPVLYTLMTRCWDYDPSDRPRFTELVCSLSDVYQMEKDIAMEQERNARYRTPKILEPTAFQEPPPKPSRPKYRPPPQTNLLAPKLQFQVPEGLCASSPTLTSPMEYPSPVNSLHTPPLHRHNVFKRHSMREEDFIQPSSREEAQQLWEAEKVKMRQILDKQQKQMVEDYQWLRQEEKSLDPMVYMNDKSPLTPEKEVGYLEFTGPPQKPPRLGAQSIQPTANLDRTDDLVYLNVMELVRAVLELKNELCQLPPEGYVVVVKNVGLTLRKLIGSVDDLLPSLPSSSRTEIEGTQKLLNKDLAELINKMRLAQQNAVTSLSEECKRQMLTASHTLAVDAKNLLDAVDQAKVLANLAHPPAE

[9] = target: SUMO E1/E2 (Homo sapiens, UniProt P63279+Q9UBE0+Q9UBT2); assay: SAR analysis of SUMOylation using HTRF in an in-Vitro dose response assay. [Related pubchem assays (depositor defined):AID2006, AID2011, AID2018, AID2069, AID2658]; assay type: functional
Sequence of SUMO E1/E2 (Q9UBE0 whole entry): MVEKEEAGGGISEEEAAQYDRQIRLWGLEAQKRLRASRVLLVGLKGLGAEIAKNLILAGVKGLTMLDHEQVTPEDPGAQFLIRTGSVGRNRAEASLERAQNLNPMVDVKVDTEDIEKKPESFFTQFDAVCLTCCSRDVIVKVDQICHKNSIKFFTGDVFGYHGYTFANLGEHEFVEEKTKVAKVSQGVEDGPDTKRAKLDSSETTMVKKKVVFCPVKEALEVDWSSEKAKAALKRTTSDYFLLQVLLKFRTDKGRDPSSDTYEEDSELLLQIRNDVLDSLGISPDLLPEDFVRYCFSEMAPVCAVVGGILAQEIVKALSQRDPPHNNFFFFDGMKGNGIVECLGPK
Sequence of SUMO E1/E2 (Q9UBT2 whole entry): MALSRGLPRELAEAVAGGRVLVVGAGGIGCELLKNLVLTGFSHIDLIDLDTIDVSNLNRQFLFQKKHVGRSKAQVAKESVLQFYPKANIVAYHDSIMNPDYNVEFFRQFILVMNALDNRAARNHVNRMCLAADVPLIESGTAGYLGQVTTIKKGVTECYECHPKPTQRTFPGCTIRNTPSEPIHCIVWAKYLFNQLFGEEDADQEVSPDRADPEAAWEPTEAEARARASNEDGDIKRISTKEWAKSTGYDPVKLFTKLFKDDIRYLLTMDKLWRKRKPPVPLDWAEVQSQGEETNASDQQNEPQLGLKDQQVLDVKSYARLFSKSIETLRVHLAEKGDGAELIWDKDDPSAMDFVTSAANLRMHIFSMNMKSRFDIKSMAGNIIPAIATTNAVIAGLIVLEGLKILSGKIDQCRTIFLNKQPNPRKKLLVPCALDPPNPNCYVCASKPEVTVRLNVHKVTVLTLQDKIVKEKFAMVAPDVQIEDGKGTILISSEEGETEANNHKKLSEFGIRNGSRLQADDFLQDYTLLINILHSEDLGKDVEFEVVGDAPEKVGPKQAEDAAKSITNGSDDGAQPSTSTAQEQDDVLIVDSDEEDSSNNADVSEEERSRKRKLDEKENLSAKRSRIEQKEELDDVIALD
Sequence of SUMO E1/E2 (P63279 whole entry): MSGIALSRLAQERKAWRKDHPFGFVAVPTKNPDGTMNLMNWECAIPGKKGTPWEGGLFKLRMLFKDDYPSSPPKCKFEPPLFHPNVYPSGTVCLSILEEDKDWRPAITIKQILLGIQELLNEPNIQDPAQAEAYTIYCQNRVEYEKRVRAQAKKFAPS

[10] = target: T4, Caspase-3 (Homo sapiens, UniProt P42574); assay type: functional;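 note: Dose-response selectivity test against caspase-3 for candidate inhibitors of sentrin-specific proteases (SENPs)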
T4 sequence (P42574 whole entry): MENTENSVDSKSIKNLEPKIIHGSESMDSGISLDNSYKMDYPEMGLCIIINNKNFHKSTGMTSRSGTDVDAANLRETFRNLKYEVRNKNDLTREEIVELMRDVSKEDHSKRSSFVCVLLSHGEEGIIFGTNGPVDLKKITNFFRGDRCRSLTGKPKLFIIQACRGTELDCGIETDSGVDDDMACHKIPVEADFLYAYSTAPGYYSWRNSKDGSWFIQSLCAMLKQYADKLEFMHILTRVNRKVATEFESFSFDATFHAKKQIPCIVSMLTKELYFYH

[11] = target: Phospholipase A2 (Homo sapiens, UniProt P04054); assay type: functional;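 note: confirmatory dose-response counterscreen on phospholipase A2, testing hits that came from an ultra-high-throughput screen for ATG4B inhibitors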
Sequence of Phospholipase A2 (P04054 whole entry): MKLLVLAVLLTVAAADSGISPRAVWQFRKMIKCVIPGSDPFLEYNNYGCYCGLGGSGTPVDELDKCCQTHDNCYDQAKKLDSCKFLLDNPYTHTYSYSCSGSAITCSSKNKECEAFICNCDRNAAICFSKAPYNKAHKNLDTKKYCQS

[12] = target: Voltage-gated N-type calcium channel alpha-1B subunit/Amyloid beta A4 precursor protein-binding family A member 1 (Homo sapiens, UniProt Q00975+Q02410); assay type: protein assay
[13] = tested on: HEK293; assay: membrane integrity loss in HEK cells – cell-based, fluorescence, cytotoxicity control for IDE activator project, dose response (AID 588440); assay type: functional; details: Homo sapiens;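 note: cytotoxicity by LDH release measuring loss of membrane integrity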
[14] = tested on: HEK293; assay: optical interference in Abeta FP readout, dose response, artefact control for IDE activator project, biochemical, fluorescence polarization (AID 588442); assay type: functional, cell-based; details: Homo sapiens
[15] = target: Ras and Rab interactor 1/Tyrosine-protein kinase ABL1 (Homo sapiens, UniProt P00519+Q13671); assay type: functional;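 note: biochemical TR-FRET dose-response test measuring inhibition of binding between Rin1 and Abl proteins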
Sequence of Ras and Rab interactor 1/Tyrosine-protein kinase ABL1 (P00519 whole entry): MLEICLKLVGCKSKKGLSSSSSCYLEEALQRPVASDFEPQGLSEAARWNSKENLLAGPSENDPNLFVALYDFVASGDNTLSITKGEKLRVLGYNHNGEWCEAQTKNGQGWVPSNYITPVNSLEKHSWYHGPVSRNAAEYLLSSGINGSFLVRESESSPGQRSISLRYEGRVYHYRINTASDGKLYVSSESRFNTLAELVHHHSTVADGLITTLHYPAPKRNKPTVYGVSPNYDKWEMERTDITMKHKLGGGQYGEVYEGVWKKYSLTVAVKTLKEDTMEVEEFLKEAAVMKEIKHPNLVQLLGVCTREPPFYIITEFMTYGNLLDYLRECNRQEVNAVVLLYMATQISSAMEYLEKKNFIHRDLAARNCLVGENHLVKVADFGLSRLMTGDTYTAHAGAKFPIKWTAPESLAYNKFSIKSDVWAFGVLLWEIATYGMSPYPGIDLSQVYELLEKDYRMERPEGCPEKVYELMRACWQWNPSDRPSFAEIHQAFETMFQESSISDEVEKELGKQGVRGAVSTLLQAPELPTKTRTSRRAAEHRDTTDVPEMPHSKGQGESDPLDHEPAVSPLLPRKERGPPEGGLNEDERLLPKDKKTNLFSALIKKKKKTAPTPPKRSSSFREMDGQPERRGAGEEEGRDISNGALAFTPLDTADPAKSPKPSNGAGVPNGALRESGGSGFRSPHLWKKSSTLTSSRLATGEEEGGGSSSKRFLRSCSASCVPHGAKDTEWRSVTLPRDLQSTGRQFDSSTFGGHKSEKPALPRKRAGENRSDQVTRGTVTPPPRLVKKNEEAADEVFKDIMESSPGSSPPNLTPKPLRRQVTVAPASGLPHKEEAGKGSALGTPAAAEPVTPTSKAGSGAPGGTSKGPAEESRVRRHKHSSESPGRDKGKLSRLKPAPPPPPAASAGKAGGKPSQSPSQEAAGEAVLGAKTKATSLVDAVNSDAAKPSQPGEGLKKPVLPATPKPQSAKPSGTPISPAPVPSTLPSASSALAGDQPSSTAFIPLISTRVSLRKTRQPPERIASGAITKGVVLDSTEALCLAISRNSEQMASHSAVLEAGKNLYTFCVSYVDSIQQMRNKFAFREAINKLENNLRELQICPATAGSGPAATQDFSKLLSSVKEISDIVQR
Sequence of Ras and Rab interactor 1/Tyrosine-protein kinase ABL1 (Q13671 whole entry): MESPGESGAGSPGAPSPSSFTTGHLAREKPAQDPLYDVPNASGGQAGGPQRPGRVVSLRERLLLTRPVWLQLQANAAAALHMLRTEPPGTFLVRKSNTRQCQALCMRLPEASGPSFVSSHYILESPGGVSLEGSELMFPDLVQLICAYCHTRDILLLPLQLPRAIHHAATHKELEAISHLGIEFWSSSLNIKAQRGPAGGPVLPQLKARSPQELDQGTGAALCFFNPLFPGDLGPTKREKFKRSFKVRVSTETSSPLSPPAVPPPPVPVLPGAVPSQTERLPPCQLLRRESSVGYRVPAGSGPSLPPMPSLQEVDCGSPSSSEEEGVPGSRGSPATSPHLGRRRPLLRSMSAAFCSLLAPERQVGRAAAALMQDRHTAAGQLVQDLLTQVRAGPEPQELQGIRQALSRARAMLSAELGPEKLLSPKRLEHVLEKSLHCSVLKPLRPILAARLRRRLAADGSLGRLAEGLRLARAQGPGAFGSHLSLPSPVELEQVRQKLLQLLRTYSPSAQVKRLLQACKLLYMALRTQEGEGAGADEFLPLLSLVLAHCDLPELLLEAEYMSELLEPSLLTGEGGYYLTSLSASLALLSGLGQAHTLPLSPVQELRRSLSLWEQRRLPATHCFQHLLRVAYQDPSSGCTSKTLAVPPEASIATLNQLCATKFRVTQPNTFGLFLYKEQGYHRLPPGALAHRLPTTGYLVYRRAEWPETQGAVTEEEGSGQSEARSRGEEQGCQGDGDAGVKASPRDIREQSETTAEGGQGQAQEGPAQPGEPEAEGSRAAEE

[16] = target: T5, Caspase-6 (Homo sapiens, UniProt P55212); assay: inhibition of CASP6 peptide cleavage – biochemical, VEID-R110 fluorescence, cherry-pick, dose response (AID 720632)
T5 sequence (P55212 whole entry): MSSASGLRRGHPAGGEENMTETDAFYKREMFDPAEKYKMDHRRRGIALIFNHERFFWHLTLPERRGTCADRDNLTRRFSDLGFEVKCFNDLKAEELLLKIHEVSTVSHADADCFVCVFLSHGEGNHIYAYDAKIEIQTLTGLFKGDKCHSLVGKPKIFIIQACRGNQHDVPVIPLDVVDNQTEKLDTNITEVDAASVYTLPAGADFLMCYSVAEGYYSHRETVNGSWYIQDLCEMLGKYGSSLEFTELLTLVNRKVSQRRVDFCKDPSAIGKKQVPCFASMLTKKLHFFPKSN

## CCCCCCCCCCOC(=O)C[n+]1c(COc2ccccc2C)n(C)c2ccccc21
[1]
  EC50: 0.68 µM (active)
[2]
  IC50: > 20 µM (inactive)
[3]
  AC50: 8.72 µM (active)
[4]
  EC50: > 92.5 µM (inactive)
[5]
  AC50: 2.16 µM (active)

## Oc1nc(Nc2ccccc2)cc2ccccc12
[6]
  IC50: > 67 µM (not active)
[7]
  IC50: > 100 µM (not active)
[8]
  IC50: > 69.5 µM (not active)
[9]
  IC50: 6.32 µM (active)
[10]
  IC50: 1.02 µM (active)
[11]
  IC50: > 80 µM (inactive)

## COc1cc(OC)c(-c2c3cc(O)c(=O)cc-3oc3cc(O)c(O)cc23)cc1OC
[12]
  IC50: > 50 µM (inactive)
[13]
  IC50: > 89.2 µM (inactive)
[14]
  EC50: > 6.21 µM (active)
[15]
  IC50: 0.724 µM (active)
[16]
  AC50: 0.0367 µM (active)
